# Measured values: patent publication US8492588B2, “Benzyloxy anilide derivatives useful as potassium channel modulators” (Valeant Pharmaceuticals International, priority 2008, dated 2013)
# Molecular target: T1, KCNQ2/3 heteromultimers (Rattus norvegicus, UniProt O88943+O88944)
# T1 construct: endogenous in cells; host or cells: PC-12 cells differentiated with NGF-7s; no transfection is described
# Test: Rubidium (Rb+) efflux test in PC-12 cells
# Type: cell-based
# Settings: NGF-differentiated PC-12 cells, depolarization buffer 15 mM KCl, 10 min
# Protocol: Compounds of this invention formula were evaluated for activity toward potassium channels in a cell-based Rb^+ efflux assay. This cellular bioassay is believed to faithfully represent the M current channel activities identified with KCNQ2/3 heteromultimers. […] Additionally, antiseizure activity in vivo was evaluated in a mouse maximal electroshock seizure (MES) model, and neurotoxicities were determined from a rotorod neurocognitive motor impairment model.
# PC-12 cells were grown at 37° C. and 5% CO2 in DMEM/F12 Medium (Dulbecco's Modified Eagle Medium with Nutrient Mix F-12, available from Invitrogen of Carlsbad, Calif.), supplemented with 10% horse serum, 5% fetal bovine serum, 2 mM glutamine, 100 U/ml penicillin, and […] streptomycin. They were plated in poly-D-lysine-coated 96-well cell culture microplates at a density of 40,000 cells/well and differentiated with 100 ng/ml NGF-7s for 2-5 days. For the assay, the medium was aspirated, and the cells were washed once with 0.2 ml in wash buffer (25 mM HEPES, pH 7.4, 150 mM NaCl, 1 mM MgCl2; 0.8 mM NaH2PO4, 2 mM CaCl2). The cells were then loaded with 0.2 ml Rh^+ loading buffer (wash buffer plus 5.4 mM […], 5 mM glucose) and incubated at 37° C. for 2 h. Attached cells were quickly washed three times with buffer (same as Rb^+ loading buffer, but containing 5.4 mM KCl instead of RbCl) to remove extracellular Rb^+. Immediately following the wash, 0.2 ml of depolarization buffer (wash buffer plus 15 mM KCl) with or without compounds was added to the cells to activate efflux of potassium ion channels. After incubation for 10 min at room temperature, the supernatant was carefully removed and collected. Cells were lysed by the addition of 0.2 ml of lysis buffer (depolarization buffer plus 0.1% Triton X-100) and the cell lysates were also collected. If collected samples were not immediately analyzed for Rb^+ contents by atomic absorption spectroscopy (see below), they were stored at 4° C. without any negative effects on subsequent Rb^+ analysis.
# The concentrations of Rb^+ in the supernatants (Rb^+Sup) and the cell lysates (Rb^+Lys) were quantified using an ICR8000 flame atomic absorption spectrometer (Aurora Biomed Inc., Vancouver, B.C.) under conditions defined by the manufacturer. Samples 0.05 ml in volume were processed automatically from microtiter plates by dilution with an equal volume of Rb^+ sample analysis buffer and injection into an air-acetylene flame. The amount of Rb^+ in the sample was measured by absorption at 780 nm using a hollow cathode lamp as light source and a PMT detector. A calibration curve covering the range 0-5 mg/L Rb^+ in sample analysis buffer was generated with each set of plates. The percent Rb^+ efflux (F) was defined by F=[Rb^+Sup/(Rb^+Sup+Rb^+Lys)]×100%. wherein the Fc is the efflux in the presence of compound in depolarization buffer, Fb is the efflux in basal buffer, and Fs is the efflux in depolarization buffer, […]. The efflux (F) and compound concentration relationship was plotted to calculate an EC50 value, a compound's concentration for 50% of maximal RV efflux. Maximal Electroshock Seizure (MES) and Acute Toxicity Tests MES Test
row,Compound,EC50 [nM]
1,CCOC(=O)Nc1ccc(OCc2ccc(F)cc2)cc1,50 to 500
2,CCOC(=O)Nc1ccc(OCc2ccc(F)cc2)cc1F,50 to 500
3,CCOC(=O)Nc1ccc(OCc2ccc(F)cc2)cc1C,50 to 500
4,CCOC(=O)Nc1ccc(OCc2ccc(F)cc2)cc1C(F)(F)F,50 to 500
5,Cc1cc(OCc2ccc(F)c(F)c2)cc(C)c1NC(=O)CCC1CCCC1,1 to 10
6,Cc1cc(OCc2ccc(F)c(F)c2)cc(C)c1NC(=O)CC(C)(C)C,10 to 50
7,Cc1cc(OCc2ccc(F)cc2)cc(C)c1NC(=O)CCC1CCCC1,1 to 10
8,Cc1cc(OCc2ccc(F)cc2)cc(C)c1NC(=O)CC(C)(C)C,10 to 50
9,Cc1ccc(COc2cc(C)c(NC(=O)CC(C)(C)C)c(C)c2)cc1,10 to 50
10,Cc1cc(OCc2cccc(C(F)(F)F)c2)cc(C)c1NC(=O)CC(C)(C)C,10 to 50
11,Cc1cc(OCc2ccccc2C(F)(F)F)cc(C)c1NC(=O)CC(C)(C)C,50 to 500
12,Cc1cc(OCc2ccc(Cl)cc2)cc(C)c1NC(=O)CC(C)(C)C,10 to 50
13,Cc1cc(OCc2ccc(Br)cc2)cc(C)c1NC(=O)CC(C)(C)C,10 to 50
14,Cc1cc(OCc2ccc(C(F)(F)F)cc2)cc(C)c1NC(=O)CC(C)(C)C,10 to 50
15,Cc1cc(OCc2ccc(F)cc2F)cc(C)c1NC(=O)CC(C)(C)C,10 to 50
16,Cc1cc(OCc2cccc(Cl)c2)cc(C)c1NC(=O)CC(C)(C)C,10 to 50
17,Cc1cc(OCc2cccc(F)c2)cc(C)c1NC(=O)CC(C)(C)C,10 to 50
